The values that follow come from patent US7323303B2, “Modified β-lactamases and uses thereof” (priority 2003, dated 2008).

Common to all, as to type: biochemical
The target in experiment [1] is T1, E166Cf (fluorescein-labeled E166C mutant of β-lactamase I) (Bacillus cereus, UniProt P00809, E185C).
T1 construct: made in house; host or cells: B. subtilis 1A304 (φ105MU331); then labelled chemically
T1 sequence (P00809 28-306 E185C): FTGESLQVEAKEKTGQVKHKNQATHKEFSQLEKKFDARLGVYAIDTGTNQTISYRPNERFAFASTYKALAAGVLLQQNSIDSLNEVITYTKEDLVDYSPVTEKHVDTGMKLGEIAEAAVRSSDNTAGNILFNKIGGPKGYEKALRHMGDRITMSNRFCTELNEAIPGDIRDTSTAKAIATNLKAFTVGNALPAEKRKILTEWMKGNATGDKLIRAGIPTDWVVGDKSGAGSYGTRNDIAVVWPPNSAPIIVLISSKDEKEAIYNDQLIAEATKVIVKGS
Nature of the experiment: Spectrophotometric substrate hydrolysis, steady-state kinetics. The method, then:
The hydrolytic activities of the wild-type β-lactamase I, E166C and E166Cf mutants towards penicillin G, penicillin V and ampicillin (Sigma) were monitored by the spectrophotometric method. The spectrophotometric measurements were performed on a Perkin Elmer Lambda Bio20 UV/Vis spectrometer. Substrate hydrolysis was monitored at a fixed wavelength: 235 nm for ampicillin, 232 nm for penicillin G and penicillin V. The initial rate of substrate hydrolysis occurring within 5 min was determined in duplicate at each of 6 different substrate concentrations in 50 mM potassium phosphate buffer (pH 7.0) at 20° C. The initial rates determined were then treated as described in Reference 5 to calculate the Michaelis constants (Km) and turnover numbers (kcat) using non-linear regression analysis (equation 1):
[formula] where v is the initial rate of substrate hydrolysis, Vmax the maximum rate of reaction, [S] the initial substrate concentration, Km the Michaelis constant and kcat=Vmax/[Enzyme].
The measured steady-state kinetic parameters for hydrolysis of penicillin G, penicillin V and ampicillin by the wild-type β-lactamase I, E166C and E166Cf mutants are summarized in Table 1.
At high substrate concentration (1.0×10^−5 and 1.0×10^−4 M), the penicillin substrates rapidly occupy the active sites to form the ES complexes, thus switching on the fluorescence of the fluorescein labels instantaneously. […] This can be verified by the fact that the ‘plateau time’ (8 and 22 min for 1.0×10^−5 and 1.0×10^−4 M penicillin G respectively) is consistent with the ‘substrate hydrolysis time’ determined by spectrophotometric assays (7 and 20 min for 1.0×10^−5 and 1.0×10^−4 M penicillin G respectively). When most of the penicillin substrates have been hydrolyzed to carboxylic acids, the fluorescence signal of the labeled enzyme will decline subsequently.

Experiment [2] concerns the target T2, B. cereus penPC β-lactamase (Bacillus cereus, UniProt P00809).
T2 construct: made in house; host or cells: B. subtilis 1A304 (φ105MU331); whole culture used, not purified
Nature of the experiment: Drug screening: E166Cf fluorescence in presence of bacterial β-lactamase culture. Set-up: key: −: Decline in fluorescence signal (presence of beta-lactam hydrolysis); +: No decline in fluorescence signal (absence of beta-lactam hydrolysis). The settings on record: antibiotic 1.0×10^−4 M, E166Cf 1.2×10^−7 M. The method, then:
(§1) The use of the E166Cf enzyme in screening bacterial β-lactamases against various β-lactam antibiotics was investigated. The principle of our method is that when both E166Cf and bacterial β-lactamase are incubated with ‘β-lactamase-unstable’ antibiotics, the fluorescence of the E166Cf enzyme will be suppressed because of the greater catalytic efficiency of the bacterial enzyme. In contrast, when bacterial β-lactamases are screened against ‘β-lactamase-resistant’ antibiotics, the fluorescence of the E166Cf enzyme will be enhanced because of the poor hydrolytic activity of the bacterial enzyme. Thus, any β-lactam antibiotic that causes the labeled enzyme to increase its fluorescence intensity in the presence of bacterial β-lactamases can be used in clinical treatments.
(§2) The β-lactamase II, penPC β-lactamase and penP β-lactamase were expressed in B. subtilis 1A304 (φ105MU331). These enzymes were prepared according to the procedures described previously (Reference 7: Thomwell, S. J. East, A. K., Errington, J. An efficient expression and secretion system based on Bacillus subtilis phage phi 105 and its uses for the production for B. cereus β-lactamase I. (1993) Gene 133, 47-53) with slight modifications. A bacterial strain was streaked on an agar plate containing 5 μg/ml chloramphenicol, and the plate was incubated at 37° C. for 24 h. A single bacterial colony from the agar plate was inoculated into 100 ml of sterilized BHY medium (37 g/l brain heart infusion and 5 g/l yeast extract) which was then incubated at 37° C. with shaking at 300 rpm overnight. About 7 ml of overnight inoculum was added to a baffled conical flask containing 100 ml of sterilized BHY medium. The inoculated medium was incubated at 37° C. with shaking at 300 rpm. When the optical density of the bacterial culture at 600 nm reached 3.5 to 4.0, the bacterial culture was heated in a water bath at 51° C. for 5 min. Afterwards, the bacterial culture was incubated at 37° C. with shaking at 300 rpm for a further 6 h. The bacterial culture was then harvested and stored at −20° C.
(§3) Fluorescence measurements of the E166Cf enzyme in the presence of bacterial cultures and β-lactam antibiotics were performed on a FLUOstar microplate reader (BMG Labtechnologies) equipped with two sample injectors. Excitation and emission filters of 485 and 520 nm respectively were used. For B. cereus penPC β-lactamase, B. licheniformis penP β-lactamase and B. cereus β-lactamase II, the labeled enzymes were mixed with the bacterial cultures, and the mixtures were made up to 300 μl with 50 mM phosphate buffer (pH 7.0) in a 96-well microtiter plate (Corning Costar). For the purpose of comparison, B. subtilis cultures, which produced no β-lactamase, were set up as negative controls. For E. coli. TEM-1 β-lactamase, the labeled enzymes were mixed with the bacterial cultures without dilution. E. coli. cultures, which produced no β-lactamase, were set up as negative controls for comparison. The antibiotics were then added to the bacterial samples by the injectors.
(§4) The results from the time-resolved fluorescence measurements of the labeled enzyme (1.2×10^−7 M) in the presence of various bacterial cultures and β-lactam antibiotics (1.0×10^−4 M) are shown in FIGS. 23 to 26.

The target of another experiment is T3, B. cereus β-lactamase II (Bacillus cereus, UniProt P04190).
T3 construct: made in house; host or cells: B. subtilis 1A304 (φ105MU331); whole culture used, not purified
The experiment is described as above. Conditions: antibiotic 1.0×10^−4 M, E166Cf 1.2×10^−7 M. Further details: key: −: Decline in fluorescence signal (presence of beta-lactam hydrolysis); +: No decline in fluorescence signal (absence of beta-lactam hydrolysis). The method, then:
as §1, §2, §3, §4

For experiment [3], the target named is T4, B. licheniformis penP β-lactamase (Bacillus licheniformis, UniProt P00808).
T4 construct: made in house; host or cells: B. subtilis 1A304 (φ105MU331); whole culture used, not purified
The description is as above. Further details: key: −: Decline in fluorescence signal (presence of beta-lactam hydrolysis); +: No decline in fluorescence signal (absence of beta-lactam hydrolysis). Conditions: antibiotic 1.0×10^−4 M, E166Cf 1.2×10^−7 M. The procedure: as §1, §2, §3, §4

Setting [4] is: E166Cf, 50 mM potassium phosphate buffer pH 7.0, 20° C.

The structures appear in SMILES notation.

T2 sequence (P00809 28-306): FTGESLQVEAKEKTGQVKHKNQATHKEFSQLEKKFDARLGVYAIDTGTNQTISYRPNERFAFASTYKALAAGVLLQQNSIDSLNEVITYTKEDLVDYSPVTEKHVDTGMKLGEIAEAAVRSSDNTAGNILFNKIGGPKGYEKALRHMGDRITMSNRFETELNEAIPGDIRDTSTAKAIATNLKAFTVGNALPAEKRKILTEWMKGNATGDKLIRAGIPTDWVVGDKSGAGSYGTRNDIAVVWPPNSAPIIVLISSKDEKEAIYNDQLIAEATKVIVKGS
T4 sequence (P00808 27-307): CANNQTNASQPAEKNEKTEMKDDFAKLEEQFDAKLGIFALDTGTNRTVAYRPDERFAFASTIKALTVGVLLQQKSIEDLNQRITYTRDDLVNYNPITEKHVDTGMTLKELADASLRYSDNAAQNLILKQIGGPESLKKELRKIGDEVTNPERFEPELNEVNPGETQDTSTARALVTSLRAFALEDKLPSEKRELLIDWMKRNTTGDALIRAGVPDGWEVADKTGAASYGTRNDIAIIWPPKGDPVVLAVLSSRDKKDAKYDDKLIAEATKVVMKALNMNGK
T3 sequence (P04190 31-257): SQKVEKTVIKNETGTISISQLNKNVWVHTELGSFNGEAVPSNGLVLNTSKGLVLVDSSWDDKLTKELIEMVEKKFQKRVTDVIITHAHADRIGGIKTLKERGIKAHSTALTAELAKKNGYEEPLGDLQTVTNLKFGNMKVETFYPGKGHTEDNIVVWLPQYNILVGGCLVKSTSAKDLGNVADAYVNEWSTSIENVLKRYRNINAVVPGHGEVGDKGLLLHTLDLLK

On to `CC1(C)S[C@@H]2[C@H](NC(=O)Cc3ccccc3)C(=O)N2[C@H]1C(=O)O` [Penicillin G, penicillin G], for which the “substrate hydrolysis time determined by spectrophotometric assays” value in experiment [1] (1.0×10^−4 M antibiotic) came to 20 min; in experiment [1] (1.0×10^−5 M antibiotic), 7 min. In addition, the Km – broadly, the concentration of substrate that gives half-maximal velocity – in experiment [1] (setting [4]) amounted to 213 ± 11 µM. In addition, the kcat (usually the maximal rate divided by the concentration of active sites) in experiment [1] (setting [4]) was 5.28 ± 0.09 s⁻¹. The “fluorescence signal of E166Cf (beta-lactam hydrolysis)” value (in experiment [2]; at B. cereus β-lactamase II; in experiment [3]) was “−” throughout.
